# Test results reported in patent US4429127A, “Quinoline carboxylic acid derivative” (Kyorin Pharmaceutical Co., Ltd., priority 1981, dated 1984).
# Like-named read-outs stand apart in the source and are kept apart here.
# What was measured:
# [1] = system: Staphylococcus aureus Smith; assay: In vivo antibacterial activity, systemic infection in mice; design: species or system mice (male, ICR)
# Method: (§1) The in vivo antibacterial activity of the compound (I) was determined in systemic infection in mice. The systemic infections were produced in male mice ICR (body weight, 19±2 g) by inoculating intraperitoneally with Staphylococcus aureus Smith and E. coli ML4707. The compounds were administered orally in divided doses at 0 and 4 hrs. after infection. The therapeutic effect of drugs was judged from the number of mice surviving after 7 days of observation. A comparison of in vivo antibacterial activity was made on the basis of the […] effective dose (ED50) calculated by the method of Litchfield and Wilcoxon.
# E. coli ML4707 [2] = assay: as above; design: species or system mice (male, ICR); conditions: Escherichia coli, ML4707, 168 h; mice, oral at 0 and 4 hrs. after infection; challenge 1.2 × 10^7 cells/animal in saline; 7 days survival; read-out: ED50
# Method: as §1
# [3] = Metabolism when administered to animals; type: in vivo
# gram-positive bacteria = assay: In vitro antibacterial activity against gram-positive bacteria (in words); type: cell-based
# Method: (§2) The minimum inhibitory concentration (MIC) of the compound (I) was determined by an agar dilution technique (the standard method of Japan Society of Chemotherapy) against standard strains of gram-positive and gram-negative bacteria.
# Acute toxicity in mice = type: in vivo; conditions: for LD50 at 168 h: mouse, in vivo, male mice, 7 days observation
# From the text: Acute toxicity of the compound (I) was examined in mice (ICR strain, 7 weeks old). Observation period was 7 days after a single oral and intravenous administration.
# [4] = Tissue levels after a single oral administration in rats (microbiological assay); type: in vivo; conditions: rat; for concentration at 0.5 h / concentration at 1 h / concentration at 2 h / concentration at 4 h / concentration at 6 h: 50 mg/kg oral
# Method: Tissue levels of the compound (I) after a single oral administration of 50 mg/kg in mice and rats
# Tissue levels of the compound (I) were determined by micro-biological assay which employed the thin layer cup method with Bacillus subtilis ATCC6633 as the test organism. Serum and tissue levels of the compound (I) were calculated with the standard curve prepared in normal serum of the test animal species and M/15 phosphate buffer (pH 7.5), respectively.
# [5] = system: Staphylococcus aureus Smith; assay: MIC against the infecting strain (Table 2); type: cell-based; conditions: Staphylococcus aureus Smith; read-out: MIC
# Method: as §2
# E. coli ML4707 [6] = assay: MIC against the infecting strain (Table 2); type: cell-based; conditions: Escherichia coli; E. coli ML4707; read-out: MIC
# Method: as §2
# [7] = kidney, read-out: Kidney concentration
# [8] = liver, read-out: Liver concentration
# [9] = lung, read-out: Lung concentration
# [10] = serum, read-out: Serum concentration
compound,measurement,setting,value
"CCn1cc(C(=O)O)c(=O)c2cc(F)c(N3CCN(Cc4ccc(N)cc4)CC3)c(F)c21 [compound (I), 7-[4-(p-aminobenzyl)-1-piperazinyl]-1-ethyl-6,8-difluoro-1,4-dihydro-4-oxoquinoline-3-carboxylic acid]",Potency superior to nalidixic acid (in vivo),"[1]; S. aureus Smith, versus nalidixic acid",172 times
same,"In vivo antibacterial activity, in words","[1]; S. aureus Smith, versus nalidixic acid and pipemidic acid",significantly more effective than that of nalidixic acid and pipemidic acid
same,Potency superior to pipemidic acid (in vivo),"[1]; S. aureus Smith, versus pipemidic acid",62 times
same,ED50,"[1]; Staphylococcus aureus, 168 h, mice, oral at 0 and 4 hrs. after infection, challenge 2.4 × 10^5 cells/animal in BHI containing mucin, 7 days survival, read-out: ED50",3.7 mg/kg
same,ED50,E. coli ML4707 [2],13.8 mg/kg
same,"Metabolism, in words",[3],"metabolized in part to 1-ethyl-6,8-difluoro-1,4-dihydro-4-oxo-7-(1-piperazinyl)quinoline-3-carboxylic acid"
same,"Antibacterial activity against gram-positive bacteria containing Streptococcus spp., in words",gram-positive bacteria,more potent against gram-positive bacteria containing Streptococcus spp.
same,"Acute toxicity, in words","Acute toxicity in mice; mice, single oral and intravenous administration",low toxicity
same,LD50 at 168 h,Acute toxicity in mice; iv,250 to 300 mg/kg
same,LD50 at 168 h,Acute toxicity in mice; po,> 4000 mg/kg
same,concentration at 0.5 h,[4]; [7],6.6 µg/mL
same,concentration at 1 h,[4]; [7],6.8 µg/mL
same,concentration at 2 h,[4]; [7],2.7 µg/mL
same,concentration at 4 h,[4]; [7],1 µg/mL
same,concentration at 6 h,[4]; [7],0.3 µg/mL
same,concentration at 0.5 h,[4]; [8],14 µg/mL
same,concentration at 1 h,[4]; [8],15.4 µg/mL
same,concentration at 2 h,[4]; [8],6.2 µg/mL
same,concentration at 4 h,[4]; [8],2.2 µg/mL
same,concentration at 6 h,[4]; [8],0.8 µg/mL
same,concentration at 0.5 h,[4]; [9],6 µg/mL
same,concentration at 1 h,[4]; [9],8.6 µg/mL
same,concentration at 2 h,[4]; [9],2.1 µg/mL
same,concentration at 4 h,[4]; [9],0.6 µg/mL
same,concentration at 0.5 h,[4]; [10],4.8 µg/mL
same,concentration at 1 h,[4]; [10],5.3 µg/mL
same,concentration at 2 h,[4]; [10],1.2 µg/mL
same,concentration at 4 h,[4]; [10],0.2 µg/mL
same,concentration at 6 h,[4]; [10],0.2 µg/mL
same,Cmax,"[4]; serum, rats, single oral 50 mg/kg, read-out: Peak serum level",5.3 µg/mL
same,MIC,[5],0.05 mg/L
same,MIC,E. coli ML4707 [6],0.39 mg/L
